Test results: US20260015387A1, “MITOCHONDRIAL ANTIOXIDANT PEPTIDES” (priority 2022, published 2026)
Where two headings read alike, the source gives them in different places. Square brackets hold non-standard residues; d marks the D form. Dmt = Cc1cc(O)cc(C)c1C[C@H](N)C(=O)O

Legend:
[1] = Hydroxyl radical scavenging measured by EPR; details: DMPO trap, compared to the SS-31 peptide (FIG. 7)
Description: Hydroxyl radical scavenging activity of peptides measured by electron paramagnetic resonance (EPR). Hydroxyl radical was generated by a reaction of 0.8 mM FeSO4, with 0.8-mM H2O2, pH 7.0 (250 μL). The hydroxyl radicals were trapped with 5,5-dimethyl-1-pyrroline-N-oxide (DMPO) prior to obtaining spectra.

[2] = tested on: Human HMESO malignant mesothelioma cells; experiment: ROS glow assay (cellular H2O2 levels); assay type: cell-based; details: 250 mM peptide, 50 μM menadione, 4 hours; compared to the SS-31 peptide (FIG. 8)
Description: An ROS glow assay was also performed. The assay measures the levels of H2O2 after injury to the cell. Human HMESO malignant mesothelioma cells were incubated with […] of WT, 2-TH or His compound with the addition 50 μM menadione and the H2O2 substrate for 4 hours (in duplicate). The reaction was quenched with addition of the H2O2 detection substrate. Luminescence levels were measured in a plate reader after 30 minutes of incubation.

[3] = tested on: 16HBE41o-cells; assay type: cell-based; details: for Protection against HOCl-mediated cell death: cells treated with 200 μM HOCl, MTT assay
Description: 16HBE41o-cells were treated with 200 μM of HOCl for 60 min in PBS with or without increasing concentrations of peptides. Cells were washed and then placed back in media and cell viability was assess at 24 hours using the MTT assay. % Protection was determined by normalizing data to cell viability with and without oxidant.
An HOCl protection assay using 16HBE41o-cells was performed. This assay measured protection against cell death using HOCl as the oxidant. RH8=2TH peptide and RH9=His peptide. […] For this assay, 16HBE41o-cells were treated with 200 μM of HOCl for 60 minutes in PBS with or without increasing concentrations of test compounds. Cells were washed and then placed back in media and cell viability was assess at 24 hours using the MTT assay. % Protection was determined by normalizing data to cell viability with and without oxidant. Data curves were generated using Prism 8 software (GraphPad) for 50% effective concentration (EC50) determinations and their respective 95% confidence intervals.

[4] = In vitro antioxidant capacity studies; details: in vitro data
From the text: Various in vitro antioxidant capacity studies and some cell-based protection assays have been performed. […] This is especially true for HOCl-mediated injury as illustrated in FIG. 9.

[5] = tested on: cardiolipin; experiment: Cardiolipin binding assay (cytochrome c reduction by ascorbate); details: compared to SS31 (FIG. 18)
From the text: Cardiolipin binds to cytochrome c, preventing it from being reduced by ascorbate. When the peptide binds cardiolipin, cytochrome c is free to be reduced by ascorbate.

[6] = DPPH antioxidant activity (radical quenching); details: compared to the SS-31 peptide (FIG. 3)
Description: Experiments were performed to determine DPPH antioxidant activity. Radical concentration of DPPH was determined after reacting with varying concentrations of peptide. DPPH is an organic radical with a peak ABS at 525 nm.

[7] = ABTS radical quenching assay; details: FIGS. 4-6
Description: ABTS assays were also performed. ABTS is a radical cation that is blue in color and absorbs light at 734 nm. 7 mM AzBTS was mixed in water with 2.45 mM potassium persulfate and left 16 hrs in the dark at rt to oxidize. […] The ABTS solution was diluted to an absorbance of ˜0.7 at 734 nm. Samples were assayed with ABTS: 990 μL ABTS solution+10 μL sample. Stocks of peptides were made with concentrations in the range of 0.1 mM to 3.2 mM. This assay may be a better choice than DPPH if there is less steric hindrance. FIGS. 4-6 show the results of these experiments.

[8] = tested on: cellular reactive oxygen species; details: ROS caused by 1-butyl hydroperoxide; cited from earlier work
[9] = after global ischemia; cited from earlier work

Compound	Scavenging of the hydroxyl radical [1]	Cellular levels of H2O2 [2]	EC50 ([3]; cells treated with 200 μM HOCl for 60 min in PBS, viability at 24 hours, MTT, read-out: EC50 of protection against HOCl-mediated cell death) [µM]	Protection against HOCl-mediated cell death [3]	Antioxidant activity (overall comparison) [4]	Binding to cardiolipin (CL) [5]	Scavenging of the DPPH radical [6]	Quenching of the ABTS radical [7]	Scavenging of cellular reactive oxygen species [8]	Protection against HOCl-mediated cell death ([3]; listed as WT peptide)	Prevention of reperfusion-associated myocardial stunning [9]
N=C(N)NCCC[C@@H](N)C(=O)N[C@@H](Cc1c[nH]c(=S)[nH]1)C(=O)N[C@@H](CCCCN)C(=O)N[C@@H](Cc1ccccc1)C(N)=O [RH8]	better at scavenging	significantly lower compared to the SS-31 peptide	50	protects strongly	significantly better antioxidant than the SS-31 peptide	binds to CL equally well as SS31	better at scavenging the DPPH radical	–	–	–	–
H-[dR][Dmt]KF-NH2 [SS-31]	–	–	–	did not protect against HOCl-mediated injury at all	–	–	–	quenches the ABTS radical better	scavenged cellular reactive oxygen species	did not show any protection	prevented reperfusion-associated myocardial stunning
